Results published in paper PMC8877291, “Design and Synthesis of Arylpiperazine Serotonergic/Dopaminergic Ligands with Neuroprotective Properties” (Molecules, 2022).

Assays:
[1] = system: SH-SY5Y neuroblastoma cells; assay: Neuroprotection against H2O2 in SH-SY5Y cells (MTT assay); type: cell-based, human; conditions: 3 h pretreatment, both concentrations (1 μM and 5 μM), then 400 μM H2O2 24 h
Description: Treatment of SH-SY5Y cells with 400 μM H2O2 for 24 h led to a reduction of cell viability of 72–76% (Figure 3). The protective effect of each compound was determined by pretreating the cells with the test compound for 3 h at the non-toxic doses of 1 μM and 5 μM, and subsequent treatment with 400 μM H2O2 for an additional 24 h.
(§1) SH-SY5Y neuroblastoma cells (cat. CRL-2266, ATCC) were cultured in a 1:1 mixture of Eagle’s Minimum Essential Medium (cat. 15-010-CVR, Corning) and Ham’s F12 medium (cat. 10-080-CVR, Corning). This medium was supplemented with 10% (v/v) Fetal Bovine Serum (cat. 35-079-CV, Corning), 1% (v/v) Glutamine (cat. ECB3000D, Euro Clone) and 1% (v/v) Penicillin—Streptomycin (cat.30-002-CI, Corning). Cells were cultivated at 37 °C with 5% CO2 at saturated humidity.
Determination of neuroprotection against H2O2 was performed using the MTT assay at 24 h. On day 1, 25,000 cells/well were seeded into 96-well plates in a volume of 100 μL. On day 2, the cells were pretreated (3 h) with two drug concentrations (1 μM and 5 μM) before being incubated with 400 μM H2O2 for 24 h. In all the experiments, the various drug-solvents (EtOH, DMSO) were added in each control to evaluate a possible solvent cytotoxicity. After 24 h incubation, MTT (0.5 mg/mL) was added to each well, and after 3–4 h incubation at 37 °C, the supernatant was removed. The formazan crystals were solubilized using 100 μL of DMSO/EtOH (1:1, v/v) and the absorbance values at 570 and 630 nm were determined on the microplate reader Victor 3 from PerkinElmer Life Sciences (Waltham, MA, USA).
Data were analyzed by applying the one-way repeated measures analysis of variance, and Bonferroni’s multiple comparison test followed as a post hoc test. Results are reported as mean SD of at least two to three independent experiments, performed in triplicate. Statistical significance was accepted at p < 0.05.

[2] = system: SH-SY5Y neuroblastoma cells; assay: Cytotoxicity in SH-SY5Y cells (MTT assay); type: cell-based, human; conditions: 48 h, dose range 0.1 to 100 μM
Description: Initially, the cytotoxicity of the target compounds was assessed by treating SH-SY5Y cells for 48 h with various concentrations of compounds (0.1 to 100 μM).
as §1
Determination of cell growth was performed using the MTT assay at 48 h. On day 1, 25,000 cells/well were seeded into 96-well plates in a volume of 100 μL. On day 2, the various drug concentrations ([…]–100 μM) were added. In all the experiments, the various drug-solvents (EtOH, DMSO) were added in each control to evaluate possible solvent cytotoxicity. After the established incubation time with drugs (48 h), MTT (0.5 mg/mL) was added to each well, and after 3–4 h incubation at 37 °C, the supernatant was removed. The formazan crystals were solubilized using 100 μL of DMSO/EtOH (1:1, v/v) and the absorbance values at 570 and 630 nm were determined on the microplate reader Victor 3 (PerkinElmer Life Sciences, Waltham, MA, USA).

SMILES	recovery of cell viability vs 400 μM H2O2 alone (in words) [1]	cytotoxicity (in words) [2]
CC1Oc2ccc(OCCCN3CCN(c4ncccc4-c4ccncc4)CC3)cc2NC1=O (centres unmarked) [Compound 8a, 6-(3-(4-([3,4’-Bipyridin]-2-yl)piperazin-1-yl)propoxy)-2-methyl-2H-benzo[b][1,4]oxazin-3(4H)-one]	statistically significant recovery of cell viability	
CC1Oc2ccc(OCCCCN3CCN(c4ncccc4-c4ccncc4)CC3)cc2NC1=O (centres unmarked) [Compound 8b, 6-(4-(4-([3,4’-Bipyridin]-2-yl)piperazin-1-yl)butoxy)-2-methyl-2H-benzo[b][1,4]oxazin-3(4H)-one]	statistically significant recovery of cell viability	
COc1ccc(-c2cc(F)ccc2N2CCN(CCCCn3ncc(=O)n(C)c3=O)CC2)cc1 [Compound 9b, 2-(4-(4-(5-Fluoro-4’-methoxy-[1,1’-biphenyl]-2-yl)piperazin-1-yl)butyl)-4-methyl-1,2,4-triazine-3,5(2H,4H)-dione]	statistically significant recovery of cell viability	
Cn1c(=O)cnn(CCCN2CCN(c3ncccc3-c3ccncc3)CC2)c1=O [Compound 11a, 2-(3-(4-([3,4’-Bipyridin]-2-yl)piperazin-1-yl)propyl)-4-methyl-1,2,4-triazine-3,5(2H,4H)-dione]		not cytotoxic
Cn1c(=O)cnn(CCCCN2CCN(c3ncccc3-c3ccncc3)CC2)c1=O [Compound 11b, 2-(4-(4-([3,4’-Bipyridin]-2-yl)piperazin-1-yl)butyl)-4-methyl-1,2,4-triazine-3,5(2H,4H)-dione]		not cytotoxic
